Measurements reported in patent US20250281480A1, “PHARMACEUTICAL DRY POWDER INHALATION FORMULATION” (Bayer Aktiengesellschaft, priority 2021, published 2025).

Test: Micronization of monohydrate II and monohydrate I (spiral jet mill): solid form after micronization
Assay type: physicochemical
Conditions: example 8e: 100 mm spiral jet mill
Text: Generally no amorphization even partial nor form conversion should happen during the necessary micronization step.
The corresponding batches (examples 8a-8d) were micronized using a 50 mm spiral jet mill and pressurized nitrogen with the following parameters (see table 16b).
The corresponding batches were micronized using a 100 mm spiral jet mill and pressurized nitrogen with the following parameters (see table 16c).

Compound: O=C(O)c1ccc(CCN(CCc2ccccc2OCc2ccc(-c3ccc(C(F)(F)F)cc3)cc2Cl)[C@H]2CCCc3nc(C(=O)O)ccc32)cc1 [Example 4, (5S)—{[2-(4-Carboxyphenyl)ethyl][2-(2-{[3-chloro-4′-(trifluoromethyl)biphenyl-4-yl]methoxy}phenyl)-ethyl]amino}-5,6,7,8-tetrahydroquinoline-2-carboxylic Acid as Monohydrate I]
- stability under micronization conditions: stable
